Test results: patent publication US20020065219A1, “Water soluble thiazolyl peptide derivatives” (priority 2000, published 2002)
Values after ≈ are worked out from the molar mass of the structure shown. Like-named read-outs stand apart in the source and are kept apart here.

Legend:
Assay in all cases: MIC, broth micro dilution assay (NCCLS)
Type in all cases: cell-based
[1] = system: Staphylococcus aureus A15090
[2] = system: Streptococcus pneumoniae A28272
[3] = system: Enterococcus faecalis A20688
[4] = Mueller-Hinton medium, 35° C., 18 hours
[5] = 50% Mueller-Hinton medium and 50% Todd Hewitt medium, 35° C., 18 hours

| Compound | MIC (μg/mL) against Staphylococcus aureus A15090 [1, 4] | MIC (μg/mL) against Streptococcus pneumoniae A28272 [2, 5] | MIC (μg/mL) against Enterococcus faecalis A20688 [3, 4] | also measured |
| --- | --- | --- | --- | --- |
| CO/C(C)=C1/NC(=O)C(C(C)O)NC(=O)c2csc(n2)-c2cc(O)c(-c3nc(C(=O)NC(CSCCc4nnn[nH]4)C(N)=O)cs3)nc2-c2csc(n2)C2COC(=O)c3c4c5c(cccc5n3O)COC(=O)C(O[C@H]3C[C@](C)(O)[C@H](N(C)C)[C@H](C)O3)C(OC4)C(NC(=O)c3csc1n3)c1nc(cs1)C(=O)N2 (stereo partly drawn) [Example 47] | 2.0 µg/mL (≈ 1.28 µM) | 0.25 µg/mL (≈ 0.159 µM) | 32 µg/mL (≈ 20.4 µM) | – |
| COC(C)=C1NC(=O)C(C(C)O)NC(=O)c2csc(n2)-c2cc(O)c(-c3nc(C(=O)NC(CN(C)C(=O)CCC(=O)O)C(N)=O)cs3)nc2-c2csc(n2)C2COC(=O)c3c4c5c(cccc5n3O)COC(=O)C(OC3CC(C)(O)C(N(C)C)C(C)O3)C(OC4)C(NC(=O)c3csc1n3)c1nc(cs1)C(=O)N2 (stereo not drawn) [Example 106] | 4.0 µg/mL (≈ 2.55 µM) | 8.0 µg/mL (≈ 5.1 µM) | 32 µg/mL (≈ 20.4 µM) | – |
| CO/C(C)=C1/NC(=O)C(C(C)O)NC(=O)c2csc(n2)-c2cc(O)c(-c3nc(C(=O)NC(CN4C[C@H](C)NC[C@@H]4C)C(N)=O)cs3)nc2-c2csc(n2)C2COC(=O)c3c4c5c(cccc5n3O)COC(=O)C(O[C@H]3C[C@](C)(O)[C@H](N(C)C)[C@H](C)O3)C(OC4)C(NC(=O)c3csc1n3)c1nc(cs1)C(=O)N2 (stereo partly drawn) [Example 59] | 1.0 µg/mL (≈ 0.644 µM) | 0.25 µg/mL (≈ 0.161 µM) | 2.0 µg/mL (≈ 1.29 µM) | – |
| CO/C(C)=C1/NC(=O)C(C(C)O)NC(=O)c2csc(n2)-c2cc(O)c(-c3nc(C(=O)NC(CSCCC(=O)O)C(N)=O)cs3)nc2-c2csc(n2)C2COC(=O)c3c4c5c(cccc5n3O)COC(=O)C(O[C@H]3C[C@](C)(O)[C@H](N(C)C)[C@H](C)O3)C(OC4)C(NC(=O)c3csc1n3)c1nc(cs1)C(=O)N2 (stereo partly drawn) [Example 40] | 1.0 µg/mL (≈ 0.648 µM) | 0.03 µg/mL (≈ 0.0194 µM) | (4.0) μg/mL | – |
| CO/C(C)=C1/NC(=O)C(C(C)O)NC(=O)c2csc(n2)-c2cc(O)c(-c3nc(C(=O)NC(CN(C)Cc4ccccc4O[C@@H]4O[C@H](CO)[C@@H](O)[C@H](O)[C@H]4O)C(N)=O)cs3)nc2-c2csc(n2)C2COC(=O)c3c4c5c(cccc5n3O)COC(=O)C(O[C@H]3C[C@](C)(O)[C@H](N(C)C)[C@H](C)O3)C(OC4)C(NC(=O)c3csc1n3)c1nc(cs1)C(=O)N2 (stereo partly drawn) [Example 29] | 0.06 µg/mL (≈ 0.0345 µM) | 0.015 µg/mL (≈ 0.00864 µM) | 0.25 µg/mL (≈ 0.144 µM) | – |
| CO/C(C)=C1/NC(=O)C(C(C)O)NC(=O)c2csc(n2)-c2cc(O)c(-c3nc(C(=O)NC(CN(C)CCO)C(N)=O)cs3)nc2-c2csc(n2)C2COC(=O)c3[nH]c4cccc5c4c3COC(C(O[C@H]3C[C@](C)(O)[C@H](N(C)C)[C@H](C)O3)C(=O)OC5)C(NC(=O)c3csc1n3)c1nc(cs1)C(=O)N2 (stereo partly drawn) [Example 92] | 0.125 µg/mL (≈ 0.0835 µM) | 0.0005 µg/mL (≈ 0.000334 µM) | 0.125 µg/mL (≈ 0.0835 µM) | – |
| COC(C)=C1NC(=O)C(C(C)O)NC(=O)c2csc(n2)-c2cc(O)c(-c3nc(C(=O)NC(CN4CCCC4C(C)(C)O)C(N)=O)cs3)nc2-c2csc(n2)C2COC(=O)c3c4c5c(cccc5n3O)COC(=O)C(OC3CC(C)(O)C(N(C)C)C(C)O3)C(OC4)C(NC(=O)c3csc1n3)c1nc(cs1)C(=O)N2 (stereo not drawn) [Example 89] | 0.003 µg/mL (≈ 0.00191 µM) | 0.007 µg/mL (≈ 0.00447 µM) | 0.03 µg/mL (≈ 0.0191 µM) | – |
| COC(C)=C1NC(=O)C(C(C)O)NC(=O)c2csc(n2)-c2cc(O)c(-c3nc(C(=O)NC(CN4CCC(O)C4)C(N)=O)cs3)nc2-c2csc(n2)C2COC(=O)c3c4c5c(cccc5n3O)COC(=O)C(OC3CC(C)(O)C(N(C)C)C(C)O3)C(OC4)C(NC(=O)c3csc1n3)c1nc(cs1)C(=O)N2 (stereo not drawn) [Example 37] | 0.06 µg/mL (≈ 0.0394 µM) | 0.007 µg/mL (≈ 0.00459 µM) | 0.125 µg/mL (≈ 0.082 µM) | – |
| CO/C(C)=C1/NC(=O)C(C(C)O)NC(=O)c2csc(n2)-c2cc(O)c(-c3nc(C(=O)NC(CNCCn4cc([N+](=O)[O-])nc4C)C(N)=O)cs3)nc2-c2csc(n2)C2COC(=O)c3c4c5c(cccc5n3O)COC(=O)C(O[C@H]3C[C@](C)(O)[C@H](N(C)C)[C@H](C)O3)C(OC4)C(NC(=O)c3csc1n3)c1nc(cs1)C(=O)N2 (stereo partly drawn) [Example 68] | 2.0 µg/mL (≈ 1.24 µM) | 0.5 µg/mL (≈ 0.311 µM) | 8.0 µg/mL (≈ 4.98 µM) | – |
| CCN(CC)CCN(CCN(CC)CC)CC(NC(=O)c1csc(-c2nc3c(cc2O)-c2nc(cs2)C(=O)NC(C(C)O)C(=O)N/C(=C(\C)OC)c2nc(cs2)C(=O)NC2c4nc(cs4)C(=O)NC(COC(=O)c4c5c6c(cccc6n4O)COC(=O)C(O[C@H]4C[C@](C)(O)[C@H](N(C)C)[C@H](C)O4)C2OC5)c2nc-3cs2)n1)C(N)=O (stereo partly drawn) [Example 24] | – | – | – | MIC (μg/mL) against Staphylococcus aureus A15090 [1]: 1.0 µg/mL (≈ 0.605 µM); MIC (μg/mL) against Streptococcus pneumoniae A28272 [2]: 0.007 µg/mL (≈ 0.00423 µM); MIC (μg/mL) against Enterococcus faecalis A20688 [3]: 2.0 µg/mL (≈ 1.21 µM) |
| CO/C(C)=C1/NC(=O)C(C(C)O)NC(=O)c2csc(n2)-c2cc(O)c(-c3nc(C(=O)NC(CNCCCN4CCN(C)CC4)C(N)=O)cs3)nc2-c2csc(n2)C2COC(=O)c3c4c5c(cccc5n3O)COC(=O)C(O[C@H]3C[C@](C)(O)[C@H](N(C)C)[C@H](C)O3)C(OC4)C(NC(=O)c3csc1n3)c1nc(cs1)C(=O)N2 (stereo partly drawn) [Example 51] | – | – | – | MIC (μg/mL) against Staphylococcus aureus A15090 [1]: 0.25 µg/mL (≈ 0.157 µM); MIC (μg/mL) against Streptococcus pneumoniae A28272 [2]: 0.015 µg/mL (≈ 0.00941 µM); MIC (μg/mL) against Enterococcus faecalis A20688 [3]: 4.0 µg/mL (≈ 2.51 µM) |
| CO/C(C)=C1/NC(=O)C(C(C)O)NC(=O)c2csc(n2)-c2cc(O)c(-c3nc(C(=O)NC(CNCCN(C)C)C(N)=O)cs3)nc2-c2csc(n2)C2COC(=O)c3c4c5c(cccc5n3O)COC(=O)C(O[C@H]3C[C@](C)(O)[C@H](N(C)C)[C@H](C)O3)C(OC4)C(NC(=O)c3csc1n3)c1nc(cs1)C(=O)N2 (stereo partly drawn) [Example 17] | 2.0 µg/mL (≈ 1.31 µM) | 0.03 µg/mL (≈ 0.0197 µM) | 4.0 µg/mL (≈ 2.62 µM) | – |
| CO/C(C)=C1/NC(=O)C(C(C)O)NC(=O)c2csc(n2)-c2cc(O)c(-c3nc(C(=O)NC(CS(=O)(=O)C4C[N+]5([O-])CCC4CC5)C(N)=O)cs3)nc2-c2csc(n2)C2COC(=O)c3c4c5c(cccc5n3O)COC(=O)C(OC3CC(C)(O)C([N+](C)(C)[O-])C(C)O3)C(OC4)C(NC(=O)c3csc1n3)c1nc(cs1)C(=O)N2 (stereo not drawn) [Example 105] | – | – | – | MIC ([1]; Staphylococcus aureus, A15090, 18 h, read-out: MIC (μg/mL) against Staphylococcus aureus A15090): 1 µg/mL (≈ 0.608 µM); MIC ([2]; Streptococcus pneumoniae, A28272, 18 h, read-out: MIC (μg/mL) against Streptococcus pneumoniae A28272): 0.25 µg/mL (≈ 0.152 µM); MIC ([3]; Enterococcus faecalis, A20688, 18 h, read-out: MIC (μg/mL) against Enterococcus faecalis A20688): 2 µg/mL (≈ 1.22 µM) |
| COC(C)=C1NC(=O)C(C(C)O)NC(=O)c2csc(n2)-c2cc(O)c(-c3nc(C(=O)NC(CN4CCCC4C(C)O)C(N)=O)cs3)nc2-c2csc(n2)C2COC(=O)c3c4c5c(cccc5n3O)COC(=O)C(OC3CC(C)(O)C(N(C)C)C(C)O3)C(OC4)C(NC(=O)c3csc1n3)c1nc(cs1)C(=O)N2 (stereo not drawn) [Example 86] | 0.007 µg/mL (≈ 0.00451 µM) | 0.015 µg/mL (≈ 0.00966 µM) | 0.06 µg/mL (≈ 0.0386 µM) | – |
